Measured values as given in patent US10239832B2, “N-(1-hydroxy-3-(pyrrolidinyl)propan-2-yl)pyrrolidine-3-carboxamide derivatives as glucosylceramide synthase inhibitors” (BIOMARIN PHARMACEUTICAL INC., priority 2013, dated 2019).

Target: T1, GCS (Canis lupus familiaris, UniProt A0A8I3MXG6)
T1 construct: endogenous in cells; host or cells: MDCK (Madin-Darby canine kidney) cells, whole-cell lysate
T1 sequence (A0A8I3MXG6 1-394): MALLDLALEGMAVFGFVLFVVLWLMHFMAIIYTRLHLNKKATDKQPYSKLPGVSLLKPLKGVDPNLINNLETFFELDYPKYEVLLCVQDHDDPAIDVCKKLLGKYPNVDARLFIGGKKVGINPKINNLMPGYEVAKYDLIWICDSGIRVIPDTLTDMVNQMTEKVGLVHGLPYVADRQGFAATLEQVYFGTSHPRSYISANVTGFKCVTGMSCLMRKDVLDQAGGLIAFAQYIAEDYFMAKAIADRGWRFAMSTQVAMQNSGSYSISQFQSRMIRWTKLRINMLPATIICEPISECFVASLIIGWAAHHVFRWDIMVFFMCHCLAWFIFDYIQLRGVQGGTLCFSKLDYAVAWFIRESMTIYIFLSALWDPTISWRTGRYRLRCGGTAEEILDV
Assay: GCS enzymatic assay (MDCK cell lysate, NBD-ceramide to glucosylceramide, LC/MS)
Assay type: biochemical, canine
Conditions: Table 2, the table does not say which of the assays; for Data Range (% inhibition): class symbols D, E, F, NA (not active); for IC50: class symbols A, B, C, read-out: Data Range (IC50 values)
Description: This assay was modified based on the study by Larsen et al. (J. Lipid Res. 2011, 53, 282). Madin-Darby canine kidney (MDCK) cell lysate was prepared using M-PER Mammalian Protein Extraction Reagent (Thermal Scientific) in the presence of a protease inhibitor cocktail (Roche). Protein concentration was determined using BCA assay kit (Pierce). […] 0.1% DMSO was used as mock treatment or control. The reaction was terminated by adding 100 μL acetonitrile solution and subjected to LC/MS analysis.
The quantitative analysis of NBD-Ceramide and glucosylceramide was performed on a Shimadzu ultra-fast liquid chromatography (Shimadzu, Japan) coupled with API 4000 triple quadrupole mass spectrometer (Applied Biosystems, Concord, Ontario, Canada). Sample separation was conducted on a Waters Xbridge™ BEH130 C18, 100 mm×4.6 mm i.d, 3.5 μm (Milford, Mass., USA). The mobile phase consisted of water and acetonitrile supplemented with 0.1% formic acid (v/v). The flow rate was 1.0 mL/min. The initial mobile phase was 20% acetonitrile and was ramped in a linear fashion to 50% acetonitrile in 0.4 min. From 0.4 to 1.5 min, the gradient was ramped to 98% acetonitrile, and then was held at […] until 8.0 min. Acetonitrile was reset to 20% in 1.5 min, and maintained until 10.0 min. The total run time was 10.0 min. The MS/MS detection was performed in ESI positive mode. The mass transition of NBD-Ceramide was m/z 576.36→558.40 under the collision energy of 15 V, and the mass transition of glucosylceramide was m/z 738.35→558.40 under 21V collision energy. The cell lysate was diluted with equal volume of acetonitrile. Aliquots of 50 μL diluted samples were added to 1.5 mL tubes, and 100 μL of acetonitrile containing internal standard (100 ng/mL tolbutamide) were added for protein precipitation. The mixture were vortexed and then centrifuged at 13000 rpm for 10 min. 70 μL of supernatant were mixed with 140 μL of H2O and the final solution were injected for LC/MS/MS analysis and IC50's and/or percent inhibitions calculated.

Data Range (% inhibition)	IC50 [nM]	SMILES
F (1-49% (or less than 50%))	–	O=C(N[C@H](CN1CCCC1)[C@H](O)c1ccc2c(c1)OCCO2)C1CCN(CC2(O)CCOCC2)C1 (stereo partly drawn) [Compound 5D, N-((1R,2R)-1-(2,3-dihydrobenzo[b][1,4]dioxin-6-yl)-1-hydroxy-3-(pyrrolidin-1-yl)propan-2-yl)-1-((4-hydroxytetrahydro-2H-pyran-4-yl)methyl)pyrrolidine-3-carboxamide]
F (1-49% (or less than 50%))	–	O=C(N[C@H](CN1CCCC1)[C@H](O)c1ccc2c(c1)OCCO2)[C@H]1CCN(CC2(O)CCOCC2)C1 [Compound 5E, (S)-N-((1R,2R)-1-(2,3-dihydrobenzo[b][1,4]dioxin-6-yl)-1-hydroxy-3-(pyrrolidin-1-yl)propan-2-yl)-1-((4-hydroxytetrahydro-2H-pyran-4-yl)methyl)pyrrolidine-3-carboxamide]
F (1-49% (or less than 50%))	–	O=C(N[C@H](CN1CCCC1)[C@H](O)c1ccc2c(c1)OCCO2)C1CCN(C2CCOCC2)C1 (stereo partly drawn) [Compound 9D, N-((1R,2R)-1-(2,3-dihydrobenzo[b][1,4]dioxin-6-yl)-1-hydroxy-3-(pyrrolidin-1-yl)propan-2-yl)-1-(tetrahydro-2H-pyran-4-yl)pyrrolidine-3-carboxamide]
F (1-49% (or less than 50%))	–	O=C(N[C@H](CN1CCCC1)[C@H](O)c1ccc(OC2CC2)nc1)[C@H]1CCN(c2ccc(Cl)cc2)C1 [Compound 13C, (S)-1-(4-chlorophenyl)-N-((1R,2R)-1-(6-cyclopropoxypyridin-3-yl)-1-hydroxy-3-(pyrrolidin-1-yl)propan-2-yl)pyrrolidine-3-carboxamide]
–	1 to 30	O=C(N[C@H](CN1CCCC1)[C@H](O)c1ccc2c(c1)OCCO2)C1CCN(c2ccc3cc(F)ccc3c2)C1 (stereo partly drawn) [Compound 14C, N-((1R,2R)-1-(2,3-dihydrobenzo[b][1,4]dioxin-6-yl)-1-hydroxy-3-(pyrrolidin-1-yl)propan-2-yl)-1-(6-fluoronaphthalen-2-yl)pyrrolidine-3-carboxamide]
F (1-49% (or less than 50%))	–	O=C(N[C@H](CN1CCCC1)[C@H](O)c1ccc2c(c1)OCCO2)C1CCN(Cc2ccc(Cl)cc2)C1 (stereo partly shown) [Compound 15C]
F (1-49% (or less than 50%))	–	O=C(N[C@H](CN1CCCC1)[C@H](O)c1ccc2c(c1)OCCO2)[C@H]1CCN(Cc2ccc(Cl)cc2)C1 [Compound 15D, (S)-1-(4-chlorobenzyl)-N-((1R,2R)-1-(2,3-dihydrobenzo[b][1,4]dioxin-6-yl)-1-hydroxy-3-(pyrrolidin-1-yl)propan-2-yl)pyrrolidine-3-carboxamide]
E (50-74% (or less than 75%))	–	O=C(N[C@H](CN1CCCC1)[C@H](O)c1ccc2c(c1)OCCO2)C1CCN(c2ccc(OC3CC3)c(Cl)c2)C1 (stereo partly shown) [Compound 20D]

Second part, the compound before the results:

SMILES	Data Range (% inhibition)	IC50 [nM]
O=C(N[C@H](CN1CCCC1)[C@H](O)c1ccc(OC2CC2)c(Cl)c1)C1CCN(c2ccc(C(F)(F)F)cc2)C1 (stereo partly drawn) [Compound 6, N-((1R,2R)-1-(3-chloro-4-cyclopropoxyphenyl)-1-hydroxy-3-(pyrrolidin-1-yl)propan-2-yl)-1-(4-(trifluoromethyl)phenyl)pyrrolidine-3-carboxamide]	F (1-49% (or less than 50%))	–
O=C(N[C@H](CN1CCCC1)[C@H](O)c1ccc2c(c1)OCCO2)[C@@H]1CCN(C2CCOCC2)C1 [Compound 9, (R)-N-((1R,2R)-1-(2,3-dihydrobenzo[b][1,4]dioxin-6-yl)-1-hydroxy-3-(pyrrolidin-1-yl)propan-2-yl)-1-(tetrahydro-2H-pyran-4-yl)pyrrolidine-3-carboxamide]	NA (not active—a negative value was generated for % inhibition)	–
O=C(N[C@H](CN1CCCC1)[C@H](O)c1ccc2c(c1)OCCO2)[C@H]1CCN(C2CCOCC2)C1 [Compound 9E, (S)-N-((1R,2R)-1-(2,3-dihydrobenzo[b][1,4]dioxin-6-yl)-1-hydroxy-3-(pyrrolidin-1-yl)propan-2-yl)-1-(tetrahydro-2H-pyran-4-yl)pyrrolidine-3-carboxamide]	NA (not active—a negative value was generated for % inhibition)	–
O=C(N[C@H](CN1CCCC1)[C@H](O)c1ccc(OC2CC2)c(Cl)c1)C1CCN(c2ccc(OC(F)(F)F)cc2)C1 (stereo partly drawn) [Compound 10, N-((1R,2R)-1-(3-chloro-4-cyclopropoxyphenyl)-1-hydroxy-3-(pyrrolidin-1-yl)propan-2-yl)-1-(4-(trifluoromethoxy)phenyl)pyrrolidine-3-carboxamide]	D (75-100%)	–
O=C(N[C@H](CN1CCCC1)[C@H](O)c1ccc2c(c1)OCCO2)C1CCN(C2CCCC2)C1 (stereo partly drawn) [Compound 11, 1-cyclopentyl-N-((1R,2R)-1-(2,3-dihydrobenzo[b][1,4]dioxin-6-yl)-1-hydroxy-3-(pyrrolidin-1-yl)propan-2-yl)pyrrolidine-3-carboxamide]	NA (not active—a negative value was generated for % inhibition)	–
O=C(N[C@H](CN1CCCC1)[C@H](O)c1ccc(OC2CC2)nc1)[C@@H]1CCN(c2ccc(Cl)cc2)C1 [Compound 13, (R)-1-(4-chlorophenyl)-N-((1R,2R)-1-(6-cyclopropoxypyridin-3-yl)-1-hydroxy-3-(pyrrolidin-1-yl)propan-2-yl)pyrrolidine-3-carboxamide]	–	30 to 100
O=C(N[C@H](CN1CCCC1)[C@H](O)c1ccc2c(c1)OCCO2)[C@@H]1CCN(Cc2ccc(Cl)cc2)C1 [Compound 15, (R)-1-(4-chlorobenzyl)-N-((1R,2R)-1-(2,3-dihydrobenzo[b][1,4]dioxin-6-yl)-1-hydroxy-3-(pyrrolidin-1-yl)propan-2-yl)pyrrolidine-3-carboxamide]	F (1-49% (or less than 50%))	–
O=C(N[C@H](CN1CCCC1)[C@H](O)c1ccc2c(c1)OCCO2)[C@@H]1CCN(c2nccs2)C1 [Compound 17, (R)-N-((1R,2R)-1-(2,3-dihydrobenzo[b][1,4]dioxin-6-yl)-1-hydroxy-3-(pyrrolidin-1-yl)propan-2-yl)-1-(thiazol-2-yl)pyrrolidine-3-carboxamide]	E (50-74% (or less than 75%))	–
O=C(N[C@H](CN1CCCC1)[C@H](O)c1ccc2c(c1)OCCO2)[C@H]1CCN(c2nccs2)C1 [Compound 17D, (S)-N-((1R,2R)-1-(2,3-dihydrobenzo[b][1,4]dioxin-6-yl)-1-hydroxy-3-(pyrrolidin-1-yl)propan-2-yl)-1-(thiazol-2-yl)pyrrolidine-3-carboxamide]	NA (not active—a negative value was generated for % inhibition)	–
O=C(N[C@H](CN1CCCC1)[C@H](O)c1ccc2c(c1)OCCO2)C1CCN(c2ccc(Cl)c(OC3CC3)c2)C1 (stereo partly shown) [Compound 19]	E (50-74% (or less than 75%))	–
O=C(N[C@H](CN1CCCC1)[C@H](O)c1ccc2c(c1)OCCO2)[C@@H]1CCN(c2ccc(OC3CC3)c(Cl)c2)C1 [Compound 20, (R)-1-(3-chloro-4-cyclopropoxyphenyl)-N-((1R,2R)-1-(2,3-dihydrobenzo[b][1,4]dioxin-6-yl)-1-hydroxy-3-(pyrrolidin-1-yl)propan-2-yl)pyrrolidine-3-carboxamide]	F (1-49% (or less than 50%))	–
